Test results: patent publication US20080009418A1, “Selective Inhibitors” (Alchemia LTD., priority 2004, published 2008)

Assays:
[1] = biological target: T1, Human neurokinin (NK1) (Homo sapiens, UniProt P25103); assay: Radioligand binding, human neurokinin NK1 membranes, filtration, [125I]-Substance P; details: compound at 10 μM, [125I]-Substance P; for A8: inhibition of radioligand binding: human NK1 membranes
T1 construct: purchased Perkin Elmer Biosignal
How it was run: (§1)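 Membranes from cloned human receptors were incubated with compound and radioligand for 1 hour at room temperature. Bound ligand was collected on 0.3% PEI-soaked filters, washed with cold 50 mM Tris-HCl pH 7.4, and counted by scintillation. Percent inhibition was computed against DMSO totals and reference-ligand nonspecific wells.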

[2] = biological target: T2, Human Melanocortin (MC4) (Homo sapiens, UniProt P32245); assay: Radioligand binding, human melanocortin MC4 membranes, FlashPlate, [125I]-NDP-αMSH; details: compound at 10 μM, [125I]-NDP-αMSH; for A4: inhibition of radioligand binding: human MC4 membranes
T2 construct: purchased Perkin Elmer Biosignal
How it was run: (§2)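 Cloned human receptor membranes were coated onto FlashPlate wells and incubated with radioligand and compound (added from a 0.5 mM DMSO daughter plate) for 1 hour at room temperature in the dark. Scintillation counting gave percent inhibition, with DMSO defining total and reference ligand defining non-specific binding.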

[3] = biological target: T3, Human μ-opioid (MOP) (Homo sapiens, UniProt P35372); assay: Radioligand binding, human μ-opioid (MOP) membranes, FlashPlate, [3H]-Naloxone; details: compound at 10 μM, [3H]-Naloxone; for A7: inhibition of radioligand binding: human MOP membranes
T3 construct: purchased Perkin Elmer Biosignal
How it was run: as §2

[4] = biological target: T4, Human melanocortin (MC5) (Homo sapiens, UniProt P33032); assay: Radioligand binding, human melanocortin MC5 membranes, FlashPlate, [125I]-NDP-αMSH; details: compound at 10 μM, [125I]-NDP-αMSH; for A5: inhibition of radioligand binding: human MC5 membranes
T4 construct: purchased Perkin Elmer Biosignal
How it was run: as §2

[5] = biological target: T5, Human neuropeptide Y (NPY-Y1) (Homo sapiens, UniProt P25929); assay: Radioligand binding, human neuropeptide Y NPY-Y1 membranes, FlashPlate, [125I]-PYY; details: compound at 10 μM, [125I]-PYY; for A9: inhibition of radioligand binding: human NPY-Y1 membranes
T5 construct: purchased Perkin Elmer Biosignal
T5 sequence (P25929 1-384): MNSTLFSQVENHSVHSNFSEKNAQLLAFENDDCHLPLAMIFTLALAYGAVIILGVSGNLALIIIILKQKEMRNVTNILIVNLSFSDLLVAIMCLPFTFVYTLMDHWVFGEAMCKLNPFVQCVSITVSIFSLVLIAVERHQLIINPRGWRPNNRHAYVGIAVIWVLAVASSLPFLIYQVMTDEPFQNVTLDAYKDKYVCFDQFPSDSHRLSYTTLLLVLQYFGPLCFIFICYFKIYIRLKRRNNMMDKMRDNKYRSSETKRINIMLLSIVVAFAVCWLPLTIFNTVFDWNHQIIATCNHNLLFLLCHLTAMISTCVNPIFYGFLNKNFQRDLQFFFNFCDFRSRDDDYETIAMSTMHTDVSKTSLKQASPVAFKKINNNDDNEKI
How it was run: as §2

[6] = biological target: T6, Human δ-opioid (DOP) (Homo sapiens, UniProt P41143); assay: Radioligand binding, human δ-opioid (DOP) membranes, FlashPlate, [3H]-Bremazocine; details: compound at 10 μM, [3H]-Bremazocine; for A1: inhibition of radioligand binding: human DOP membranes
T6 construct: purchased Perkin Elmer Biosignal
How it was run: as §2

[7] = biological target: T7, Mouse urotensin (mUR2) (Mus musculus, UniProt Q8VIH9); assay: Radioligand binding, mouse urotensin mUR2 membranes, FlashPlate, [125I]-Urotensin II; details: compound at 10 μM, [125I]-Urotensin II; for A11: inhibition of radioligand binding: mouse mUR2 membranes
T7 construct: purchased Perkin Elmer Biosignal
T7 sequence (Q8VIH9 1-385): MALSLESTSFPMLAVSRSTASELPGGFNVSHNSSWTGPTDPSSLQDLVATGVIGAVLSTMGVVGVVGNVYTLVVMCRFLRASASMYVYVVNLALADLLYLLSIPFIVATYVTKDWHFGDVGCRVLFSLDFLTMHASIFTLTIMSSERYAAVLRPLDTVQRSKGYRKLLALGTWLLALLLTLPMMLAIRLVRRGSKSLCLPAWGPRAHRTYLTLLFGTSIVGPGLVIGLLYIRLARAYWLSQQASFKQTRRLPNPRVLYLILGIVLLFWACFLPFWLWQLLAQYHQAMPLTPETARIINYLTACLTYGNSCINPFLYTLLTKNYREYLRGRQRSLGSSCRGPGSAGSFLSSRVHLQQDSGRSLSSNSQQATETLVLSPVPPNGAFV
How it was run: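 Cloned mouse urotensin (mUR2) receptor membranes from Perkin Elmer Biosignal were immobilized in FlashPlate microplates using a proprietary coating. Each well got 19.5 μl buffer, then 0.5 μl of DMSO, reference ligand, or compound. Adding 5 μl of [125I]-Urotensin II, diluted to 5× final concentration in binding buffer, started binding. Plates were sealed with TopSeal-A and incubated 1 hour at room temperature in the dark. Wells were counted for 30 seconds each on a TopCount after a 60-second delay, and percentage inhibition was calculated.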

[8] = biological target: T8, Human melanin-concentrating hormone (MCH1) (Homo sapiens, UniProt Q99705); assay: Radioligand binding, human melanin-concentrating hormone MCH1 membranes, FlashPlate, [125I]-S36057; details: compound at 10 μM; for A6: inhibition of radioligand binding: [125I]-S36057, human MCH1 membranes
T8 construct: purchased Perkin Elmer Biosignal
How it was run: as §2

[9] = biological target: T9, Human Melanocortin (MC3) (Homo sapiens, UniProt P41968); assay: Radioligand binding, human melanocortin MC3 membranes, FlashPlate, [125I]-NDP-αMSH; details: compound at 10 μM, [125I]-NDP-αMSH; for A3: inhibition of radioligand binding: human MC3 membranes, 10 µM
T9 construct: purchased Perkin Elmer Biosignal
How it was run: as §2

[10] = biological target: T10, Human opioid (ORL1) (Homo sapiens, UniProt P41146); assay: Radioligand binding, human opioid ORL1 membranes, FlashPlate, [125I]-Nociceptin; details: compound at 10 μM, [125I]-Nociceptin; for A10: inhibition of radioligand binding: human ORL1 membranes
T10 construct: purchased Perkin Elmer Biosignal
How it was run: as §2

[11] = biological target: T11, Human κ-Opioid (KOP) (Homo sapiens, UniProt P41145); assay: Radioligand binding, human κ-opioid (KOP) membranes, filtration, [3H]-Diprenorphine; details: compound at 10 μM, [3H]-Diprenorphine; for A2: inhibition of radioligand binding: human KOP membranes
T11 construct: purchased Perkin Elmer Biosignal
How it was run: as §1

T6 sequence (P41143 whole entry): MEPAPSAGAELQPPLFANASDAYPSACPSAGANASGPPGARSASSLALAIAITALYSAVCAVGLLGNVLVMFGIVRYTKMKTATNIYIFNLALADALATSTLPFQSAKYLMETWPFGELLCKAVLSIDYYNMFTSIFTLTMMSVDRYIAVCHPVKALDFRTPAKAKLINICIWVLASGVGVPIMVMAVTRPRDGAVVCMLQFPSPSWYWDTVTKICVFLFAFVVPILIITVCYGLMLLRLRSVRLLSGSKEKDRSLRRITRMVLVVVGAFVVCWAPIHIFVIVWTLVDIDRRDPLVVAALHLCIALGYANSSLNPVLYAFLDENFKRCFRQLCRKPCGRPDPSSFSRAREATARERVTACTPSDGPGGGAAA
T8 sequence (Q99705 whole entry): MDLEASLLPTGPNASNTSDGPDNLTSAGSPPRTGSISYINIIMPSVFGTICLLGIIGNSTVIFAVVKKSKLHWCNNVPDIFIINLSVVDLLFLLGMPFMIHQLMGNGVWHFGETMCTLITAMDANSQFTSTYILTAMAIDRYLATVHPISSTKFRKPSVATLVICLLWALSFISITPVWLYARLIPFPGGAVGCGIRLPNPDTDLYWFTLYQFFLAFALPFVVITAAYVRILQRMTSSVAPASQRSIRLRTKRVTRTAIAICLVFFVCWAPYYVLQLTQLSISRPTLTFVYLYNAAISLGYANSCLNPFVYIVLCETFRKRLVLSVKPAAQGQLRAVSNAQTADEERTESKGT
T3 sequence (P35372 whole entry): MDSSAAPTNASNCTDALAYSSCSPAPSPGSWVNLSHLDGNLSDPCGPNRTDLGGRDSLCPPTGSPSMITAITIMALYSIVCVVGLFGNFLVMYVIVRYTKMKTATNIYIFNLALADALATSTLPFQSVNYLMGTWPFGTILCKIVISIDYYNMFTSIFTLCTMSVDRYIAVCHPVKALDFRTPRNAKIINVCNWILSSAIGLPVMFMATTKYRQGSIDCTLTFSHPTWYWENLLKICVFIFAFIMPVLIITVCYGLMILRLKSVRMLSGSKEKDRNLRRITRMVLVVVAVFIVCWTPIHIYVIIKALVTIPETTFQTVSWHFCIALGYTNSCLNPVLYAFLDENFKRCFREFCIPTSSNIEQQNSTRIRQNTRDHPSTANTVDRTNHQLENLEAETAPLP
T11 sequence (P41145 whole entry): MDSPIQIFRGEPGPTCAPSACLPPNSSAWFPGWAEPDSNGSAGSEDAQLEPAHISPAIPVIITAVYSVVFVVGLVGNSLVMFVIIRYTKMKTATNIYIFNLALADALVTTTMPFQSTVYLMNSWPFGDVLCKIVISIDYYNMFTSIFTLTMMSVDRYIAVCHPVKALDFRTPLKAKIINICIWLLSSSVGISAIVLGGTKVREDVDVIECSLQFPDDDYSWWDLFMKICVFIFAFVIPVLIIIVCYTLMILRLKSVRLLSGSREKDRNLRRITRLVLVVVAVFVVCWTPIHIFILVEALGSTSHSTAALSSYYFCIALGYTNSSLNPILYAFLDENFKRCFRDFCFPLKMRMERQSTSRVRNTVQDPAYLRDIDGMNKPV
T2 sequence (P32245 whole entry): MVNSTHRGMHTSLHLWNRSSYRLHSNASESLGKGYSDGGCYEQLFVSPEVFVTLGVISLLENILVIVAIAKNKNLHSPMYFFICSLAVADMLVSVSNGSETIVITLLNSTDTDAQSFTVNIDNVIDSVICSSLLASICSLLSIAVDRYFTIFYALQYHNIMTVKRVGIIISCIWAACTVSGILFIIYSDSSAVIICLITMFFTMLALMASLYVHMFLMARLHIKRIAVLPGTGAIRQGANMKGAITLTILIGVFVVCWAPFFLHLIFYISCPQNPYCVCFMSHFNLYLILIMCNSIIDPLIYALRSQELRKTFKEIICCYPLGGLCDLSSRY
T4 sequence (P33032 whole entry): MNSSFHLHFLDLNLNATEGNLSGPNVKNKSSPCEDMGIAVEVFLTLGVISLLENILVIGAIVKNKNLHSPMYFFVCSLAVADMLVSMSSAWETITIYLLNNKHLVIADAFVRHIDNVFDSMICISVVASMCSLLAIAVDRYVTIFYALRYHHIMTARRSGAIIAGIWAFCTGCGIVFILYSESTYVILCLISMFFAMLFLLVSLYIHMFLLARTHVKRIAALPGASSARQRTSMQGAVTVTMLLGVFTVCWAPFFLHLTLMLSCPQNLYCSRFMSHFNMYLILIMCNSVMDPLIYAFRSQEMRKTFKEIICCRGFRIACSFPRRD
T9 sequence (P41968 whole entry): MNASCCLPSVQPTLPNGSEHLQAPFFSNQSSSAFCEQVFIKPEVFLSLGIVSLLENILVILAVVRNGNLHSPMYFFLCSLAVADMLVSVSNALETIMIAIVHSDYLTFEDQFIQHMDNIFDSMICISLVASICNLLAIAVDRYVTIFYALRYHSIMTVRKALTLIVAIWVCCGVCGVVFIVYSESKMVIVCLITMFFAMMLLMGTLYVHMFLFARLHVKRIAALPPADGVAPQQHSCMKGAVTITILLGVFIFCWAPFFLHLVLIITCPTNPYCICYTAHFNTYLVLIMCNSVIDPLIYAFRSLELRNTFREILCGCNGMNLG
T10 sequence (P41146 whole entry): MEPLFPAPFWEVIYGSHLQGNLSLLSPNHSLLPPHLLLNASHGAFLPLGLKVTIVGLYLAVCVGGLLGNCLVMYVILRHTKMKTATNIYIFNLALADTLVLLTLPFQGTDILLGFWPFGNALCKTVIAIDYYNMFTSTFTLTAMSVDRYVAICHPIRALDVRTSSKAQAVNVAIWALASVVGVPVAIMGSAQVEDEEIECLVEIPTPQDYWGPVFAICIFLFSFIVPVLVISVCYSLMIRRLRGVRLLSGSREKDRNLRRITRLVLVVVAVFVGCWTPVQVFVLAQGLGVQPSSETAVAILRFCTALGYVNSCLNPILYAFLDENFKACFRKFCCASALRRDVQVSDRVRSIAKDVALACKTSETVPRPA
T1 sequence (P25103 whole entry): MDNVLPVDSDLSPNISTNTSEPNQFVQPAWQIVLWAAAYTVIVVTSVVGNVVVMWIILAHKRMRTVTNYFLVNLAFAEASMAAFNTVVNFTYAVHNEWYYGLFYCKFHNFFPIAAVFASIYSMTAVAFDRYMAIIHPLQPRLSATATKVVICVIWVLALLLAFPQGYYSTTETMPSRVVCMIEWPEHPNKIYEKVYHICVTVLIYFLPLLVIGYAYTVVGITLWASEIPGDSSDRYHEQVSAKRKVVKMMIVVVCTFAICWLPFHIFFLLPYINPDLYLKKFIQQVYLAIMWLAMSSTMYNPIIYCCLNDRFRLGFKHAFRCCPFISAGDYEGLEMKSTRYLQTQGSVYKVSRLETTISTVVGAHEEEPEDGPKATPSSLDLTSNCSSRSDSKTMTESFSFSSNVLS

NCCC(=O)N[C@H]1C(OCc2ccc3ccccc3c2)O[C@H](COCc2ccc(Cl)cc2)[C@@H](O)[C@@H]1OCc1ccc(Cl)cc1 (stereo partly drawn) [compound 440]
A8: inhibition of radioligand binding [1]: + (“+” indicates greater than 50% inhibition at 10 μM)
A4: inhibition of radioligand binding ([2]; 10 µM): − (“−” indicates less than 50% inhibition at 10 μM)
A7: inhibition of radioligand binding [3]: − (“−” indicates less than 50% inhibition at 10 μM)
A5: inhibition of radioligand binding [4]: + (“+” indicates greater than 50% inhibition at 10 μM)
A9: inhibition of radioligand binding [5]: − (“−” indicates less than 50% inhibition at 10 μM)
A1: inhibition of radioligand binding [6]: − (“−” indicates less than 50% inhibition at 10 μM)
A11: inhibition of radioligand binding [7]: − (“−” indicates less than 50% inhibition at 10 μM)
A6: inhibition of radioligand binding [8]: + (“+” indicates greater than 50% inhibition at 10 μM)
A3: inhibition of radioligand binding [9]: − (“−” indicates less than 50% inhibition at 10 μM)
A10: inhibition of radioligand binding [10]: − (“−” indicates less than 50% inhibition at 10 μM)
A2: inhibition of radioligand binding [11]: − (“−” indicates less than 50% inhibition at 10 μM)

NCCC(=O)NC1C(OCc2ccc3ccccc3c2)OC(COCc2ccc(Cl)cc2)C(O)C1OCc1ccccc1 (stereo not drawn) [compound 389]
A8: inhibition of radioligand binding [1]: + (“+” indicates greater than 50% inhibition at 10 μM)
A4: inhibition of radioligand binding [2]: + (“+” indicates greater than 50% inhibition at 10 μM)
A7: inhibition of radioligand binding [3]: − (“−” indicates less than 50% inhibition at 10 μM)
A5: inhibition of radioligand binding [4]: + (“+” indicates greater than 50% inhibition at 10 μM)
A9: inhibition of radioligand binding [5]: − (“−” indicates less than 50% inhibition at 10 μM)
A1: inhibition of radioligand binding [6]: − (“−” indicates less than 50% inhibition at 10 μM)
A11: inhibition of radioligand binding [7]: − (“−” indicates less than 50% inhibition at 10 μM)
A6: inhibition of radioligand binding ([8]; 10 µM): − (“−” indicates less than 50% inhibition at 10 μM)
A3: inhibition of radioligand binding [9]: + (“+” indicates greater than 50% inhibition at 10 μM)
A10: inhibition of radioligand binding ([10]; 10 µM): + (“+” indicates greater than 50% inhibition at 10 μM)
A2: inhibition of radioligand binding [11]: − (“−” indicates less than 50% inhibition at 10 μM)

N=C(N)NCCCC(=O)NC1COC(COCc2ccc(Cl)cc2)C(O)C1OCc1ccc(Cl)cc1 (stereo not drawn) [compound 542]
A8: inhibition of radioligand binding, human neurokinin (NK1) [1]: + (“+” indicates greater than 50% inhibition at 10 μM)
A4: inhibition of radioligand binding, human melanocortin (MC4) [2]: − (“−” indicates less than 50% inhibition at 10 μM)
A7: inhibition of radioligand binding, human μ-opioid (MOP) [3]: − (“−” indicates less than 50% inhibition at 10 μM)
A5: inhibition of radioligand binding, human melanocortin (MC5) [4]: − (“−” indicates less than 50% inhibition at 10 μM)
A9: inhibition of radioligand binding, human neuropeptide Y (NPY-Y1) [5]: − (“−” indicates less than 50% inhibition at 10 μM)
A1: inhibition of radioligand binding, human δ-opioid (DOP) [6]: − (“−” indicates less than 50% inhibition at 10 μM)
A11: inhibition of radioligand binding, mouse urotensin (mUR2) [7]: − (“−” indicates less than 50% inhibition at 10 μM)
A6: inhibition of radioligand binding, human melanin-concentrating hormone (MCH1) ([8]; [125I]-S36057): − (“−” indicates less than 50% inhibition at 10 μM)
A3: inhibition of radioligand binding, human melanocortin (MC3) [9]: − (“−” indicates less than 50% inhibition at 10 μM)
A10: inhibition of radioligand binding, human opioid (ORL1) [10]: − (“−” indicates less than 50% inhibition at 10 μM)
A2: inhibition of radioligand binding, human κ-opioid (KOP) [11]: − (“−” indicates less than 50% inhibition at 10 μM)
